# Results from patent US10793514B2, “Glutamine transport inhibitors and methods for treating cancer” (Vanderbilt University, priority 2016, dated 2020).
# Legend:
# ASCT2 = ASCT2 (Homo sapiens (Human), UniProt Q15758); assay: Drug Affinity Responsive Target Stability (DARTS) assay, ASCT2; details: tetracycline-inducible ASCT2 HEK293 cells; 50, 100, 200 μM
# [1] = test system: HCT-116 (KRAS G13D) cell-line xenografts; assay: HCT-116 xenograft chronic exposure study; type: in vivo, mouse; details: 75 mg/kg per day, 21 days
# Experimental: Tissues were sectioned (5 μm thickness) and stained for pS6 (Cell Signaling, #4858) and caspase 3 (Cell Signaling #9661). Tissue slides were imaged at 20× magnification.
# (§1) For in vivo studies, cell-line xenograft tumors were propagated in 6-week old, female athymic nude mice from immortalized cell lines. For HCC-1806 (10×10^6 cells), HCT-116 (5×10^6), and HT29 (10×10^6) cells were injected. Palpable tumors were typically visible within 2-3 weeks. For imaging studies (HCC-1806), tumors were propagated to approximately 500 mm^3. For treatment studies (HCT-116, HT29) tumors were propagated to approximately 200 mm^3 prior to therapy and were randomly assigned into treated and untreated cohorts. For generating the PDX, primary tumor tissue was obtained form a patient at Vanderbilt University Medical Center under an IRB approved protocol. The tumor tissue was genotyped within the VANTAGE core facility. Xenograft was generated as previously described 41. Briefly, tumor tissues were sectioned into approximately 125 cubic millimeter pieces then implanted subcutaneously without further manipulation. […] Tumor volumes were measured manually using calipers every third day and quantified using the formula V=W·L·(H/2).
# HEK-293 cells = assay: 3H-labeled amino acid uptake selectivity panel; type: cell-based, human; details: 3H-leucine, HEK293
# Experimental: Live-cell amino acid uptake assays using HEK293 cells were carried out in 96-well plates (CulturPlate-96, Perkin Elmer). 96-well plates were coated with poly-D-lysine prior to the assay. Cells were plated at a density of 35,000 cells per well 24 h prior to carrying out the assay. Each set of conditions was replicated at least three times, technically and biologically. […] For ASCT2-mediated ^3H-glutamine uptake assays, 5 mM of the system-L inhibitor 2-amino-2-norbornanecarboxylic acid (BCH) was added and the assay buffer was adjusted to pH 6.0. For selectivity studies, no BCH was added and the assay was conducted at pH 7.4. Following the incubation period, the ^3H-glutamine/inhibitor was removed and the cells were washed three times with assay buffer. The cells were then lysed by the addition of 50 μL of 1 M NaOH. For reading, 150 μL of scintillation fluid (Microscint 40, Perkin Elmer) was added and the plates were counted on a scintillation counter (Topcount, Perkin Elmer). Fifty percent inhibitory concentrations (IC50) were calculated using GraphPad Prism version 6 for Mac OS X, GraphPad Software, San Diego Calif. USA, www.graphpad.com. Error is reported as standard deviation (SD).
# [2] = test system: patient-derived xenograft (PDX) tumor A-008; assay: Patient-derived xenograft chronic exposure study; type: in vivo, mouse; details: 75 mg/kg daily, 31 days; vs vehicle
# Experimental: as §1
# HT29 cells = assay: Glutathione and reactive oxygen species in HT29 cells; type: cell-based, human; details: 48 h
# Experimental: Glutathione levels were measured using a commercially available kit (Cayman Chemical 703002) according to the manufacturers protocol. Concurrently ROS was measured in cells using CM-H2DCFDA (Life Technologies C6827) coupled with flow cytometry in accordance with the manufacturers protocol. The assay was replicated replicated at least three times, technically and biologically. Significance was calculated using a t-test in Graphpad Prism. Error is reported as standard deviation (SD).
# HT29 xenografts = assay: Global metabolomic analysis of HT29 xenografts; type: in vivo, mouse; details: 21 consecutive days
# Experimental: Metabolomic data acquisition was outsourced to Metabolon, Inc. Samples were prepared using the automated MicroLab STAR® system from Hamilton Company. To remove protein, dissociate small molecules bound to protein or trapped in the precipitated protein matrix, and to recover chemically diverse metabolites, proteins were precipitated with methanol under vigorous shaking for 2 min (Glen Mills GenoGrinder 2000) followed by centrifugation. The resulting extract was divided into five fractions: two for analysis by two separate reverse phase (RP)/UPLC-MS/MS methods with positive ion mode electrospray ionization (ESI), one for analysis by RP/UPLC-MS/MS with negative ion mode ESI, one for analysis by HILIC/UPLC-MS/MS with negative ion mode ESI, and one sample was reserved for backup. Samples were placed briefly on a TurboVap® (Zymark) to remove the organic solvent. All methods utilized a Waters ACQUITY ultra-performance liquid chromatography (UPLC) and a Thermo Scientific Q-Exactive high resolution/accurate mass spectrometer interfaced with a heated electrospray ionization (HESI-II) source and Orbitrap mass analyzer operated at 35,000 mass resolution. The sample extract was dried then reconstituted in solvents compatible to each of the four methods. Each reconstitution solvent contained a series of standards at fixed concentrations to ensure injection and chromatographic consistency. One aliquot was analyzed using acidic positive ion conditions, chromatographically optimized for more hydrophilic compounds. […] Another aliquot was also analyzed using acidic positive ion conditions, however it was chromatographically optimized for more hydrophobic compounds. […] Another aliquot was analyzed using basic negative ion optimized conditions using a separate dedicated C18 column. […] The fourth aliquot was analyzed via negative ionization following elution from a HILIC column (Waters UPLC BEH Amide 2.1×150 mm, 1.7 μm) using a gradient consisting of water and acetonitrile with 10 mM Ammonium Formate, pH 10.8. […] Peaks were quantified using area-under-the-curve. […]
# Chain of ASCT2 (Q15758 whole entry): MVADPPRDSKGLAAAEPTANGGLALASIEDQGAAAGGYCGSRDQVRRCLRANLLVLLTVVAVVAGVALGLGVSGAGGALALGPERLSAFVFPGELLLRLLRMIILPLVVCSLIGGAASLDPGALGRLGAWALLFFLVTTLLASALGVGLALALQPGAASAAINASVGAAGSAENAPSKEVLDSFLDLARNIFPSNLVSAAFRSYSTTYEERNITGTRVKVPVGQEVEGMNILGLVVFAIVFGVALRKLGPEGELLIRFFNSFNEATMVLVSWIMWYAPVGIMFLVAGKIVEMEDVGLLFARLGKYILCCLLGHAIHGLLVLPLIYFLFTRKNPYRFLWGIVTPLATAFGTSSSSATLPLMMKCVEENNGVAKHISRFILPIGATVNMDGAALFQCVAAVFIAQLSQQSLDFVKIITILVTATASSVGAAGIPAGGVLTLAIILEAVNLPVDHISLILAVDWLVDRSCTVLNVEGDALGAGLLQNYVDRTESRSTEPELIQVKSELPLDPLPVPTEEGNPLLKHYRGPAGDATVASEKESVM
smiles,measurement,setting,value
Cc1cccc(COc2ccccc2CN(CCC(N)C(=O)O)Cc2ccccc2OCc2cccc(C)c2)c1 (stereo not shown) [Compound V-9302],protection of ASCT2 from proteolysis (thermolysin),ASCT2,protected from proteolysis in a V-9302 concentration-dependent manner
same,cleaved caspase 3 in tumor tissue,[1]; IHC,elevated levels of cleaved caspase 3
same,pS6 in tumor tissue,[1]; IHC,significantly decreased pS6
same,tumor growth,[1]; vs vehicle,prevented tumor growth
same,inhibition of leucine uptake,HEK-293 cells,"capable of inhibiting the uptake of another ASCT2 substrate, leucine"
same,tumor volume,[2],reduction in tumor volume
same,GSSG levels and ROS,HT29 cells,elevated GSSG levels and ROS
same,creatine-phosphate levels in treated tumors,HT29 xenografts,significantly reduced
same,oxidized glutathione (GSSG) and 4-hydroxy-nonenal-glutathione in tumors,HT29 xenografts,significantly elevated
same,reduction of N-acetylserine in treated tumors,HT29 xenografts,greater than 4 fold
